Assay results: PubChem BioAssay (NCI)
Values joined by “and” are separate entries in the source; they are usually repeats but may differ in a detail not shown here. Equal entries are not always repeated.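 Assay format: 96-well plates, 48-hour exposure. GI50: concentration for 50% inhibition of growth. Definition used: TGI = concentration required for complete inhibition of growth.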

How the values were obtained:
Test in all cases: NCI-60 cell line screen, 48 h
COLO 205 colon = tested on: COLO 205 colon
M14 melanoma = tested on: M14 melanoma
CCRF-CEM leukemia = tested on: CCRF-CEM leukemia
OVCAR-4 ovarian = tested on: OVCAR-4 ovarian
K-562 leukemia = tested on: K-562 leukemia
MOLT-4 leukemia = tested on: MOLT-4 leukemia
OVCAR-8 ovarian = tested on: OVCAR-8 ovarian
DU-145 prostate = tested on: DU-145 prostate
OVCAR-5 ovarian = tested on: OVCAR-5 ovarian
RXF 393 renal = tested on: RXF 393 renal

SMILES	GI50 (COLO 205 colon)	TGI (COLO 205 colon)	GI50 (M14 melanoma)	TGI (M14 melanoma)	GI50 (CCRF-CEM leukemia)	TGI (CCRF-CEM leukemia)	GI50 (OVCAR-4 ovarian)	TGI (OVCAR-4 ovarian)	GI50 (K-562 leukemia)	TGI (K-562 leukemia)	GI50 (MOLT-4 leukemia)	TGI (MOLT-4 leukemia)	GI50 (OVCAR-8 ovarian)	TGI (OVCAR-8 ovarian)	GI50 (DU-145 prostate)	TGI (DU-145 prostate)	GI50 (OVCAR-5 ovarian)	TGI (OVCAR-5 ovarian)	GI50 (RXF 393 renal)	TGI (RXF 393 renal)
CC(C)n1c(/C=C/[C@@H](O)C[C@@H](O)CC(=O)O)c(-c2ccc(F)cc2)c2ccccc21	4.44 µM and 6.2 µM	15.3 µM and > 65.1 µM	19.4 µM and 11.9 µM	> 100 µM	13.8 µM and 13.4 µM	> 100 µM	10.4 µM and 12.9 µM	> 100 µM	5.94 µM and 6.56 µM	> 100 µM	16.4 µM and 21.9 µM	67.5 µM and > 100 µM	1.32 µM and 0.842 µM	> 100 µM	24.8 µM and 26.4 µM	> 100 µM	18.5 µM and 26.6 µM	> 100 µM	3.54 µM and 2.12 µM	> 100 µM and 18.9 µM
COc1ccc(Cl)cc1Nc1nc(C(F)(F)F)ccc1C(=O)NN	7.76 µM	> 100 µM	2.38 µM	13 µM	0.319 µM	2.86 µM	3.21 µM	> 100 µM	3.35 µM	> 100 µM	2.53 µM	> 24.3 µM	3.43 µM	> 100 µM	2.42 µM	> 20.2 µM	3.81 µM	> 100 µM	1.68 µM	> 21.4 µM
CCOC(=O)c1c(NC(=O)c2ccc(C(C)C)cc2)sc2c(CN(C)C)c(O)ccc12	2.06 µM	4.5 µM	1.77 µM	3.48 µM	2.33 µM	7.35 µM	3.7 µM	13.3 µM	0.535 µM	3.28 µM	2.05 µM	4.92 µM	3.56 µM	16.3 µM	2.2 µM	5.21 µM	2.92 µM	9.49 µM	1.74 µM	3.39 µM
Cc1cccc(NC(=O)c2sc3nc4c(cc3c2N)CCCC4)c1C	0.344 µM	27.6 µM	0.355 µM	> 100 µM	0.375 µM	> 100 µM	1.48 µM	> 100 µM	0.238 µM	> 100 µM	0.455 µM	> 100 µM	0.754 µM	> 100 µM	0.454 µM	> 100 µM	1.79 µM	> 100 µM	0.233 µM	0.733 µM
Fc1cccc(COc2ccc(Nc3ncnc4sc(-c5ccco5)cc34)cc2Cl)c1	> 25 µM	> 25 µM	> 25 µM	> 25 µM	> 25 µM	> 25 µM	> 25 µM	> 25 µM	> 25 µM	> 25 µM	> 25 µM	> 25 µM	> 25 µM	> 25 µM	> 25 µM	> 25 µM	> 25 µM	> 25 µM	> 25 µM	> 25 µM
Nc1cc2c3c(cccc3c1)NC2=O	–	> 100 µM	–	> 100 µM	–	> 100 µM	–	> 100 µM	–	> 100 µM	–	> 100 µM	–	> 100 µM	–	> 100 µM	–	> 100 µM	–	> 100 µM
O=C(Nc1ccc(OC(F)(F)F)cc1)c1sccc1NCc1ccnc2ccccc12	3.74 µM	13.8 µM	2.74 µM	30.6 µM	3.72 µM	> 100 µM	4.57 µM	> 100 µM	1.61 µM	> 100 µM	3.09 µM	> 31.6 µM	4.18 µM	> 56.4 µM	3.65 µM	> 100 µM	7.73 µM	> 100 µM	1.8 µM	6.96 µM
CC(C)(C)OC(=O)NCC(C#N)CNC(=O)OC(C)(C)C	–	> 100 µM	–	> 100 µM	–	> 100 µM	–	> 100 µM	–	> 100 µM	–	> 100 µM	–	> 100 µM	–	> 100 µM	–	> 100 µM	–	> 100 µM
COC1/C=C/OC2(C)Oc3c(C)c(O)c4c(c3C2=O)C(=O)C=C(NC(=O)/C(C)=C\C=C\C(C)C(OC=O)C(C)C(O)C(C)C(OC(C)=O)C1C)C4=O (stereo not drawn)	–	18 µM	–	19.5 µM	–	6.4 µM	–	19.1 µM	–	20.7 µM	–	10.8 µM	–	33.5 µM	–	33 µM	–	36.4 µM	–	19 µM
CC1(C)O[C@H]2OC3CCC(=O)CC3(O)[C@H]2O1 (stereo partly drawn)	–	> 100 µM	–	> 100 µM	–	> 100 µM	–	> 100 µM	–	> 100 µM	–	> 100 µM	–	> 100 µM	–	> 100 µM	–	> 100 µM	–	> 100 µM
CSc1ccc(C2=Nn3c(nnc3-c3ccc(F)c(Cl)c3)SC2)cc1	25.9 µM	> 100 µM	6.73 µM	28.4 µM	11.1 µM	> 100 µM	23.6 µM	85.1 µM	2.28 µM	> 100 µM	7.2 µM	> 100 µM	22.2 µM	> 100 µM	34.2 µM	> 100 µM	39.5 µM	> 100 µM	4.46 µM	19.4 µM
CNC(=O)Nc1ccc(-c2nc(N3CCOCC3)nc3c2cnn3C2CCOCC2)cc1	0.247 µM	> 100 µM	0.233 µM	–	0.276 µM	> 100 µM	0.191 µM	–	0.533 µM	> 100 µM	0.355 µM	> 26.8 µM	0.247 µM	6.47 µM	0.288 µM	> 100 µM	0.194 µM	1.36 µM	0.14 µM	0.812 µM
CC(=O)c1cccc(N(/C=C/C(=O)C(F)(F)F)CC(=O)c2ccc(Cl)cc2)c1	> 100 µM	> 100 µM	> 100 µM	> 100 µM	> 100 µM	> 100 µM	> 100 µM	> 100 µM	> 100 µM	> 100 µM	> 100 µM	> 100 µM	> 100 µM	> 100 µM	> 100 µM	> 100 µM	> 100 µM	> 100 µM	> 100 µM	> 100 µM
COc1ccc(C(=O)N2c3ccccc3Sc3ccccc32)c(F)c1	0.445 µM	26.8 µM	0.371 µM	> 100 µM	0.522 µM	> 100 µM	2.01 µM	> 100 µM	0.442 µM	> 100 µM	0.715 µM	> 100 µM	2.2 µM	> 100 µM	1.4 µM	> 100 µM	3.66 µM	> 100 µM	0.764 µM	> 100 µM
CC1(C)CCC(C)(C)c2cc(C(=O)Nc3ccc(C(=O)O)cc3)ccc21	–	36 µM	–	51.1 µM	–	> 80.8 µM	–	67.1 µM	–	> 100 µM	–	> 76.8 µM	–	> 88.5 µM	–	> 73.6 µM	–	> 100 µM	–	> 42 µM
COc1cc(-c2csc(NC(=O)c3cc(C(F)(F)F)cc(C(F)(F)F)c3)n2)cc(OC)c1OC	2.63 µM	7.29 µM	2.91 µM	> 100 µM	2.83 µM	> 100 µM	2.86 µM	> 100 µM	2.75 µM	> 100 µM	1.92 µM	4.98 µM	2.77 µM	> 100 µM	3.62 µM	> 100 µM	3.94 µM	> 100 µM	1.96 µM	8.94 µM
C#C[C@]1(O)CC[C@H]2[C@@H]3CC=C4c5nc(Nc6ccccn6)sc5CC[C@]4(C)[C@H]3CC[C@@]21C	1.81 µM	4.05 µM	1.14 µM	3.21 µM	0.482 µM	4.18 µM	2.94 µM	9.42 µM	0.348 µM	2.13 µM	0.344 µM	1.7 µM	1.77 µM	7.89 µM	2.16 µM	9.16 µM	1.65 µM	4.44 µM	0.218 µM	0.468 µM
CS(=O)(=O)c1ccc(Cl)c([N+](=O)[O-])c1	16.4 µM	33.2 µM	17 µM	31.7 µM	19.2 µM	52.2 µM	2.02 µM	3.9 µM	6.78 µM	66.5 µM	28.5 µM	69.5 µM	17.7 µM	36.8 µM	13.3 µM	26.4 µM	20.1 µM	36.1 µM	11.9 µM	24.5 µM
Cn1cc(C2=C(c3cn(C)c4ccc(N)cc34)C(=O)NC2=O)c2ccccc21	6 µM	> 20.5 µM	13.9 µM	> 25 µM	6.95 µM	> 25 µM	> 20.2 µM	> 25 µM	1.92 µM	> 25 µM	10.2 µM	> 25 µM	17 µM	> 25 µM	12.3 µM	> 25 µM	> 25 µM	> 25 µM	8.13 µM	> 25 µM
Cc1ccc(C(=O)Nc2ccc(CN3CCN(C)CC3)c(C(F)(F)F)c2)cc1C#Cc1cnc(N)c2ccc(F)cc12	0.301 µM	0.933 µM	0.0881 µM	0.441 µM	0.398 µM	1.82 µM	0.329 µM	2.32 µM	0.00431 µM	0.9 µM	0.0921 µM	0.671 µM	0.297 µM	2.37 µM	0.139 µM	0.554 µM	0.694 µM	2.7 µM	0.218 µM	0.579 µM
